From the supplement of paper PMC11061612

Experiments:
[1] = tested on: NCI-H835 (Other Solid Carcinomas); experiment: Bliss excess, mean over the matrix (fraction); higher = more synergy
How it was run: (§1)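 Cell lines in DMEM/F12 or RPMI with 10% FBS were plated in 1536-well plates, held 24 hours at 37°C, 5% CO2, then given two-drug dose matrices for 72 hours (DMSO typically 0.2%). Viability was read by CellTiter-Glo 2.0 luminescence and scaled as inhibition from 0 (vehicle wells) to 1 (blank wells). Combination Emax is the second-highest inhibition in the matrix; Bliss excess is observed combination effect minus expected EA + EB − EA·EB, EA and EB being single-agent effects.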

RVH-421 (Melanoma) [2] = experiment: as above
How it was run: as §1

NCI-H2452 (Mesothelioma) = experiment: combination Emax (second highest fraction inhibited in the dose matrix, 72 h); higher = more inhibition; extreme values may be limits of the assay
How it was run: as §1

[3] = tested on: OCI-M1 (Acute Myeloid Leukemia); experiment: as above
How it was run: as §1

[4] = tested on: KNS-62 (Squamous Cell Lung Carcinoma); experiment: as above
How it was run: as §1

[5] = tested on: Daudi (Burkitt's Lymphoma); experiment: as above
How it was run: as §1

[6] = tested on: RS4-11 (B-Lymphoblastic Leukemia); experiment: as above
How it was run: as §1

[7] = tested on: ATN-1 (T-Lymphoblastic Leukemia); experiment: as above
How it was run: as §1

[8] = tested on: IGROV-1 (Ovarian Carcinoma); experiment: as above
How it was run: as §1

[9] = tested on: NCI-H2170 (Squamous Cell Lung Carcinoma); experiment: as above
How it was run: as §1

[10] = tested on: NCI-H835 (Other Solid Carcinomas); experiment: as above
How it was run: as §1

[11] = tested on: NCI-H2009 (Lung Adenocarcinoma); experiment: as above
How it was run: as §1

RVH-421 (Melanoma) [12] = experiment: as above
How it was run: as §1

C32 (Melanoma) = experiment: as above
How it was run: as §1

[13] = tested on: MDA-MB-175-VII (Breast Carcinoma); experiment: as above
How it was run: as §1

[14] = tested on: SBC-5 (Small Cell Lung Carcinoma); experiment: as above
How it was run: as §1

[15] = tested on: NTERA-2-cl-D1 (Other Solid Carcinomas); experiment: as above
How it was run: as §1

[16] = tested on: L-363 (Plasma Cell Myeloma); experiment: as above
How it was run: as §1
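Wherever Bliss excess, mean over the matrix is given: after 72 h of two-drug dosing.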

| SMILES | Bliss excess [1] | Bliss excess (RVH-421 (Melanoma) [2]) | combination Emax (NCI-H2452 (Mesothelioma)) | combination Emax [3] | combination Emax [4] | combination Emax [5] | combination Emax [6] | combination Emax [7] | combination Emax [8] | combination Emax [9] | combination Emax [10] | combination Emax [11] | combination Emax (RVH-421 (Melanoma) [12]) | combination Emax (C32 (Melanoma)) | combination Emax [13] | combination Emax [14] | combination Emax [15] | combination Emax [16] |
| --- | --- | --- | --- | --- | --- | --- | --- | --- | --- | --- | --- | --- | --- | --- | --- | --- | --- | --- |
| COc1cccc2c1C(=O)c1c(O)c3c(c(O)c1C2=O)C[C@@](O)(C(=O)CO)C[C@@H]3O[C@H]1C[C@H](N)[C@H](O)[C@H](C)O1 [Doxorubicin] + Cc1cc2ncnn2cc1Nc1ncc2c(n1)n(C1CCOCC1)c(=O)n2C [AZD7648] (first compound max 1 µM, 7x7, partner max 10 µM) | 0.0207 | 0.0105 | 0.462 | 0.963 | 0.484 | 0.956 | 0.977 | 0.996 | 0.611 | 0.891 | 0.516 | 0.546 | 0.404 | 0.68 | 0.512 | 0.77 | 1 | 0.925 |
| COc1cccc(OCCCN)c1-c1cc(Nc2cnc(C#N)cn2)n[nH]1 [Prexasertib] + C=CCn1c(=O)c2cnc(Nc3ccc(N4CCN(C)CC4)cc3)nc2n1-c1cccc(C(C)(C)O)n1 [AZD1775] (first compound max 1 µM, partner max 1 µM) | 0.105 | -0.0524 | 0.832 | 0.969 | 0.684 | 0.968 | 1 | 1 | 0.788 | 0.95 | 0.684 | 0.849 | 0.341 | 0.721 | 0.424 | 0.94 | 0.916 | 1 |
| CCc1c2c(nc3ccc(O)cc13)-c1cc3c(c(=O)n1C2)COC(=O)[C@]3(O)CC [SN-38] + O=C(c1cc(Cc2n[nH]c(=O)c3ccccc23)ccc1F)N1CCN(C(=O)C2CC2)CC1 [Olaparib] (first compound max 0.3 µM, 7x7, partner max 10 µM) | 0.017 | -0.0041 | 0.316 | – | 0.905 | 0.979 | – | 1 | – | 0.969 | 0.268 | 0.442 | 0.265 | 0.664 | 0.649 | – | 1 | 0.421 |
| CC(=O)Nc1cccc(-n2c(=O)n(C3CC3)c(=O)c3c(Nc4ccc(I)cc4F)n(C)c(=O)c(C)c32)c1 [Trametinib] + Cc1nc(-c2cn3c(n2)-c2ccc(-c4cnn(C(C)(C)C(N)=O)c4)cc2OCC3)n(C(C)C)n1 [Taselisib] (first compound max 1 µM, 7x7, partner max 10 µM) | – | 0.0732 | 0.617 | 1 | 0.827 | 0.523 | 0.35 | 0.74 | 0.966 | 0.919 | – | 0.955 | 0.638 | 1 | 1 | 0.784 | 0.666 | 0.635 |
| CC1(C)CCC(CN2CCN(c3ccc(C(=O)NS(=O)(=O)c4ccc(NCC5CCOCC5)c([N+](=O)[O-])c4)c(Oc4cnc5[nH]ccc5c4)c3)CC2)=C(c2ccc(Cl)cc2)C1 [Venetoclax] + C1CN(CCC1(C(=O)N[C@@H](CCO)C2=CC=C(C=C2)Cl)N)C3=NC=NC4=C3C=CN4 [Capivasertib] (first compound max 1 µM, 7x7, partner max 3 µM) | – | -0.0471 | 0.272 | 0.157 | 0.364 | 0.205 | 1 | 0.646 | 0.738 | 0.375 | – | 0.128 | 0.351 | 0.356 | 0.393 | 0.188 | 0.692 | 0.867 |
| CC1(C)CCC(CN2CCN(c3ccc(C(=O)NS(=O)(=O)c4ccc(NCC5CCOCC5)c([N+](=O)[O-])c4)c(Oc4cnc5[nH]ccc5c4)c3)CC2)=C(c2ccc(Cl)cc2)C1 [Venetoclax] + C=CCn1c(=O)c2cnc(Nc3ccc(N4CCN(C)CC4)cc3)nc2n1-c1cccc(C(C)(C)O)n1 [AZD1775] (first compound max 1 µM, partner max 1 µM) | – | -0.0875 | 0.739 | 0.912 | 0.544 | 0.663 | 1 | 0.977 | 0.819 | 0.652 | – | 0.637 | 0.183 | 0.546 | 0.444 | 0.459 | 0.856 | 1 |
| CC1(C)CCC(CN2CCN(c3ccc(C(=O)NS(=O)(=O)c4ccc(NCC5CCOCC5)c([N+](=O)[O-])c4)c(Oc4cnc5[nH]ccc5c4)c3)CC2)=C(c2ccc(Cl)cc2)C1 [Venetoclax] + CCN(CCO)CCCOc1ccc2c(Nc3cc(CC(=O)Nc4cccc(F)c4)[nH]n3)ncnc2c1 [AZD2811] (first compound max 1 µM, 7x7, partner max 1 µM) | – | -0.0636 | 0.259 | 0.276 | 0.275 | 0.366 | 1 | 0.866 | 0.255 | 0.545 | – | 0.236 | 0.164 | 0.385 | 0.23 | 0.266 | 0.831 | 0.865 |
| CC1(C)CCC(CN2CCN(c3ccc(C(=O)NS(=O)(=O)c4ccc(NCC5CCOCC5)c([N+](=O)[O-])c4)c(Oc4cnc5[nH]ccc5c4)c3)CC2)=C(c2ccc(Cl)cc2)C1 [Venetoclax] + CN(C)CCCOc1ccc(-c2ccc3ncc4c(c3c2)n(C2CCOCC2)c(=O)n4C)cn1 [AZD0156] (first compound max 1 µM, 7x7, partner max 1 µM) | – | -0.0658 | 0.277 | 0.19 | 0.262 | 0.054 | 1 | 0.402 | 0.535 | 0.243 | – | 0.273 | 0.16 | 0.413 | 0.174 | 0.163 | 0.755 | 0.867 |
| CC1(C)CCC(CN2CCN(c3ccc(C(=O)NS(=O)(=O)c4ccc(NCC5CCOCC5)c([N+](=O)[O-])c4)c(Oc4cnc5[nH]ccc5c4)c3)CC2)=C(c2ccc(Cl)cc2)C1 [Venetoclax] + COc1cc(Nc2ncc3c(n2)-c2ccc(Cl)cc2C(c2c(F)cccc2OC)=NC3)ccc1C(=O)O [Alisertib] (first compound max 1 µM, 7x7, partner max 10 µM) | – | -0.058 | 0.573 | 0.815 | 0.283 | 0.787 | 1 | 0.901 | 0.789 | 0.666 | – | 0.5 | 0.0752 | 0.487 | 0.238 | 0.615 | 0.954 | 0.772 |
| CC1(C)CCC(CN2CCN(c3ccc(C(=O)NS(=O)(=O)c4ccc(NCC5CCOCC5)c([N+](=O)[O-])c4)c(Oc4cnc5[nH]ccc5c4)c3)CC2)=C(c2ccc(Cl)cc2)C1 [Venetoclax] + C[C@@H]1COCCN1C2=NC(=NC(=C2)C3(CC3)[S@](=N)(=O)C)C4=C5C=CNC5=NC=C4 [AZD6738] (first compound max 1 µM, 7x7, partner max 10 µM) | – | -0.0286 | 0.573 | 1 | 0.523 | 0.725 | 1 | 0.973 | 0.759 | 0.691 | – | 0.415 | 0.26 | 0.666 | 0.251 | 0.792 | 0.881 | 0.897 |
| CC1(C)CCC(CN2CCN(c3ccc(C(=O)NS(=O)(=O)c4ccc(NCC5CCOCC5)c([N+](=O)[O-])c4)c(Oc4cnc5[nH]ccc5c4)c3)CC2)=C(c2ccc(Cl)cc2)C1 [Venetoclax] + C[C@@H](Nc1cc(F)cc(F)c1)c1cc(C(=O)N(C)C)cc2c(=O)cc(N3CCOCC3)oc12 [AZD8186] (first compound max 1 µM, 7x7, partner max 3 µM) | – | -0.0084 | 0.268 | 0.0849 | 0.133 | 0.271 | 1 | 0.616 | 0.668 | 0.166 | – | 0.445 | 0.326 | 0.26 | 0.315 | 0.163 | 0.805 | 0.805 |
| CC1(C)CCC(CN2CCN(c3ccc(C(=O)NS(=O)(=O)c4ccc(NCC5CCOCC5)c([N+](=O)[O-])c4)c(Oc4cnc5[nH]ccc5c4)c3)CC2)=C(c2ccc(Cl)cc2)C1 [Venetoclax] + Cc1cc2ncnn2cc1Nc1ncc2c(n1)n(C1CCOCC1)c(=O)n2C [AZD7648] (first compound max 1 µM, 7x7, partner max 10 µM) | – | -0.0443 | 0.259 | 0.234 | 0.219 | 0.247 | 1 | 0.47 | 0.539 | 0.282 | – | 0.12 | 0.221 | 0.396 | 0.243 | 0.212 | 0.743 | 0.867 |
| CC1(C)CCC(CN2CCN(c3ccc(C(=O)NS(=O)(=O)c4ccc(NCC5CCOCC5)c([N+](=O)[O-])c4)c(Oc4cnc5[nH]ccc5c4)c3)CC2)=C(c2ccc(Cl)cc2)C1 [Venetoclax] + Cn1cnc2c(F)c(Nc3ccc(Br)cc3Cl)c(C(=O)NOCCO)cc21 [Selumetinib] (first compound max 1 µM, 7x7, partner max 3 µM) | – | -0.0317 | 0.181 | 0.483 | 0.253 | 0.115 | 1 | 0.137 | 0.595 | 0.107 | – | 0.184 | 0.385 | 0.941 | 0.255 | 0.18 | 0.742 | 0.833 |
